The source of these data is patent publication US9079919B2 (HOFFMANN-LA ROCHE INC., priority 2011, dated 2015).

T1 sequence (P56817 46-501): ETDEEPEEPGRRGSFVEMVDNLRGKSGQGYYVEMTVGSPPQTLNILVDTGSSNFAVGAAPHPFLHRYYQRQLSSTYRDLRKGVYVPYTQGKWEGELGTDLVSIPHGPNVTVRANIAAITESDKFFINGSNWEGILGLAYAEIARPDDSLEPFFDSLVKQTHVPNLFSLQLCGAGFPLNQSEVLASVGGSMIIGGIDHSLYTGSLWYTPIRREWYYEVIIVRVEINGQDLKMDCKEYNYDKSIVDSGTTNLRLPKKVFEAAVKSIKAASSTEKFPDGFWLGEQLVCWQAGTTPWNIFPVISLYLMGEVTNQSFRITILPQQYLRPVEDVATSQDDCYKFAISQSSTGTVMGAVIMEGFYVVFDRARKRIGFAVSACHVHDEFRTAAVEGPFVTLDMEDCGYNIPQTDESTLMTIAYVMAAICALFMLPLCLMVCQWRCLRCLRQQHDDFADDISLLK

This assay addresses T1, BACE1 (Homo sapiens, UniProt P56817).
T1 construct: Human HEK293 cells which are stably transfected with a vector expressing a cDNA of the human APP wt gene (APP695); endogenous in cells; host or cells: HEK293 cells stably transfected with human APP695 (wt)
Put plainly: Cellular Aβ-lowering assay a) (Aβ40 ELISA). It is filed as cell-based. Conditions: cellular assay a): HEK293 cells expressing human APP695, Aβ40 in supernatant by ELISA after 18-20 hrs; read-out: BACE1 cell act. Aβ40 IC50. The protocol:
a) Human HEK293 cells which are stably transfected with a vector expressing a cDNA of the human APP wt gene (APP695) were used to assess the potency of the compounds in a cellular assay. The cells were seeded in 96-well microtiter plates in cell culture medium (Iscove, plus 10% (v/v) fetal bovine serum, glutamine, penicillin/streptomycin) to about 80% confluence and the compounds were added at a 10× concentration in 1/10 volume of medium without FCS containing 8% DMSO (final concentration of DMSO was kept at 0.8% v/v). After 18-20 hrs incubation at 37° C. and 5% CO2 in a humidified incubator the culture supernatant was harvested for the determination of Aβ40 concentrations. 96 well ELISA plates (e.g., Nunc MaxiSorb) were coated with monoclonal antibody which specifically recognize the C-terminal end of Aβ40 (Brockhaus et al., NeuroReport 9, 1481-1486; 1998). After blocking of non-specific binding sites with e.g. 1% BSA and washing, the culture supernatants were added in suitable dilutions together with a horseradish peroxidase-coupled Aβ detection antibody (e.g., antibody 4G8, Senetek, Maryland Heights, Mo.) and incubated for 5 to 7 hrs. Subsequently the wells of the microtiter plate were washed extensively with Tris-buffered saline containing 0.05% Tween 20 and the assay was developed with tetramethylbenzidine/H2O2 in citric acid buffer. After stopping the reaction with one volume of 1N H2SO4 the reaction was measured in an ELISA reader at 450 nm wavelength. The concentrations of Aβ in the culture supernatants were calculated from a standard curve obtained with known amounts of pure Aβ peptide.
As to `N#Cc1cncc(-c2ccc3c(c2)[C@@]2(CC(c4ccccc4)O3)N=C(N)COCC2(F)F)c1` (mixture of isomers) [Example 59, 5-((2RS,4R)-3′-amino-6′,6′-difluoro-2-phenyl-6′,7′-dihydro-2′H-spiro[chroman-4,5′-[1,4]oxazepine]-6-yl)nicotinonitrile], the IC50 was found to be 0.34 µM. For the molecule `N#Cc1cncc(-c2ccc3c(c2)[C@@]2(CC(c4ccccc4)O3)N=C(N)OCC2(F)F)c1` (mixture of isomers) [Example 24, 5-((2RS,4R)-2′-amino-5′,5′-difluoro-2-phenyl-5′,6′-dihydrospiro[chroman-4,4′-[1,3]oxazine]-6-yl)nicotinonitrile], the 50% inhibitory concentration (IC50) was found to be 0.098 µM. Turning to `NC1=N[C@@]2(CC(c3ccccc3)Oc3ccc(-c4cncc(Cl)c4)cc32)C(F)(F)COC1` (mixture of isomers) [Example 56, (2RS,4R)-6-(5-Chloropyridin-3-yl)-6′,6′-difluoro-2-phenyl-6′,7′-dihydro-2′H-spiro[chroman-4,5′-[1,4]oxazepin]-3′-amine], the IC50 was 2.1 µM. For `N#Cc1ccc(C(=O)Nc2ccc3c(c2)[C@@]2(CC3)N=C(N)OCC2(F)F)nc1` [Example 15, (R)—N-(2′-Amino-5′,5′-difluoro-2,3,5′,6′-tetrahydrospiro[indene-1,4′-[1,3]oxazine]-6-yl)-5-cyanopicolinamide], the IC50 was 0.51 µM. For the molecule `NC1=N[C@@]2(CCOc3ccc(NC(=O)c4[nH]ncc4Cl)cc32)C(F)(F)CO1` [Example 35], the IC50 came out at 1.25 µM. As to `NC1=N[C@@]2(CC(c3ccccc3)Oc3ccc(NC(=O)c4ccc(C(F)(F)F)cn4)cc32)C(F)(F)CO1` (single isomer, unassigned) [Example 39, N-((2R or 2S,4R)-2′-Amino-5′,5′-difluoro-2-phenyl-5′,6′-dihydrospiro[chroman-4,4′-[1,3]oxazine]-6-yl)-5-(trifluoromethyl)picolinamide], the 50% inhibitory concentration (IC50) was 0.28 µM. As to `NC1=N[C@@]2(CCc3ccc(NC(=O)c4ccc(C(F)(F)F)cn4)cc32)C(F)(F)CO1` [Example 18, (R)—N-(2′-Amino-5′,5′-difluoro-2,3,5′,6′-tetrahydrospiro[indene-1,4′-[1,3]oxazine]-6-yl)-5-(trifluoromethyl)picolinamide], the half-inhibitory concentration (IC50) was found to be 0.66 µM. As to `N#Cc1ccc(C(=O)Nc2ccc3c(c2)[C@@]2(CCO3)N=C(N)COCC2(F)F)nc1` [Example 49, (R)—N-(3′-Amino-6′,6′-difluoro-6′,7′-dihydro-2′H-spiro[chroman-4,5′-[1,4]oxazepine]-6-yl)-5-cyanopicolinamide], the IC50 worked out at 0.83 µM. For the molecule `NC1=N[C@@]2(CCS(=O)(=O)c3ccc(NC(=O)c4ccc(Cl)cn4)cc32)C(F)(F)CO1` [Example 45, N-[(4R)-2-amino-5,5-difluoro-1′,1′-dioxido-2′,3′,5,6-tetrahydrospiro[1,3-oxazine-4,4′-thiochromen]-6′-yl]-5-chloropyridine-2-carboxamide], the IC50 is 6.96 µM. On to `NC1=N[C@@]2(CCC(F)(F)c3ccc(-c4cncc(Cl)c4)cc32)C(F)(F)CO1` [Example 3, (R)-7-(5-Chloropyridin-3-yl)-4,4,5′,5′-tetrafluoro-3,4,5′,6′-tetrahydro-2H-spiro[naphthalene-1,4′-[1,3]oxazin]-2′-amine], for which the half-inhibitory concentration (IC50) amounted to 2.55 µM.

With `NC1=N[C@@]2(CCc3ccc(NC(=O)c4ccc(Cl)cn4)cc32)C(F)(F)CO1` [Example 16, (R)—N-(2′-Amino-5′,5′-difluoro-2,3,5′,6′-tetrahydrospiro[indene-1,4′-[1,3]oxazine]-6-yl)-5-chloropicolinamide], the concentration for half-maximal inhibition (IC50) was determined as 2.49 µM.
